Reference: patent publication US11603395B2, “Antitumor peptide and use thereof” (TOAGOSEI CO., LTD, priority 2019, dated 2023)
Read-outs that look alike come from different tables or passages of the source. Where no end group is shown, it is not given here.

What was measured:
[1] = system: human melanoma (A2058) cell lines; test: Antitumor index from viability of A2058 cells vs MCF-12F normal cells (Cell Counting Kit-8, WST-8); assay type: cell-based; settings: 48 hours; for Antitumor activity / proliferation of A2058 cells (in words): 6.25-25 μM; for Antitumor index: A2058 viability A / MCF-12F viability B, n=6 wells
Protocol: Specifically, for example, a test using a conventionally known cell proliferation measurement reagent using a tetrazolium salt is performed so that the antitumor index can be calculated. In a preferable aspect, first, the antitumor composition disclosed here is added to a culture solution containing tumor cells, culture is performed for a predetermined time (for example, 24 hours or longer and 72 hours or shorter), and the viability A (%) of tumor cells is calculated. In addition, the viability B (%) of normal cells cultured under the same conditions is calculated. Then, the antitumor index based on the viabilities of tumor cells and normal cells calculated in this manner can be evaluated according to, for example, the following Formula (1):
Antitumor index based on viabilities of tumor cells and normal cells=A/B (1).
The antitumor activity of the peptides of Samples 1 to 4 synthesized in the above Test Example 1 was evaluated using human-derived cultured tumor cells as targets.
Specifically, currently commercially available human melanoma (A2058) cell lines were used as test tumor cells. In addition, a normal human mammary epithelial cell culture line (MCF-12F) was used for comparison. Here, culture solutions of respective cells are as follows.
A2058 cells and MCF-12F cells were cultured and prepared so that the number of cells per well in a 96-hole (well) plate was about 5×10^3. An amount of the culture medium in this case was 100 μL per well.
Next, the 96-hole (well) plate was placed in a CO2 incubator and pre-incubated under conditions of 37° C. and 5% CO2 for about 1 day (21 hours to 24 hours).
(§1) Then, peptide-containing test culture mediums for each concentration were prepared so that the concentrations of the sample peptides to be evaluated were 6.25 μM, 12.5 μM, and 25 μM and supplied to wells (that is, wells after the pre-incubation) in which 90 μL of cells to be evaluated were cultured in each well. Then, the 96-hole (well) plate was returned to the CO2 incubator and incubated under conditions of 37° C. and 5% CO2 for 48 hours.
Here, the number of test wells (n) at peptide concentrations in peptide addition test groups was set to 6. Therefore, the value of the result shown in the following table is an average value of the results obtained in 6 test wells.
(§2) After the incubation for 48 hours was completed, the culture medium in each well was substituted with 100 μL of a fresh culture medium containing no peptide, and additionally, 10 μL of a cell proliferation measurement reagent “Cell Counting Kit-8” (product, commercially available from Dojindo Laboratories) containing a “water-soluble tetrazolium salt (WST-8)” as a coloring reagent was added to each well. Then, the 96-well plate was returned to the CO2 incubator and incubated under conditions of 37° C., and 5% CO2 for 1.5 hours to 2 hours.
(§3) After the incubation was completed, the cell culture solution to which the reagent was added was collected and the cell viability (%) was calculated according to a colorimetric method in which an absorbance at a wavelength of 450 nm (value corrected by the absorbance at a wavelength of 620 nm: A450-A620) was measured based on the reduction of the tetrazolium salt. Specifically, a measured value (measurement absorbance) of a comparative test group in which the above incubation was performed for 48 hours in a culture medium containing no sample peptide was set as a cell viability of 100%. Then, the viability A (%) of A2058 cells and the viability B (%) of MCF-12F cells were calculated. In addition, an antitumor index was calculated based on the viability of A2058 cells and MCF-12F cells using the above Formula (1), and thus the antitumor activity of the sample peptide with respect to A2058 cells was evaluated.

[2] = system: human kidney cancer cell lines (CAKI2); test: Antitumor index from viability of CAKI2 cells vs MCF-12F normal cells (Cell Counting Kit-8, WST-8); assay type: cell-based; settings: 48 hours; for Proliferation of CAKI2 cells (in words): 6.25-25 μM; for Antitumor index: CAKI2 viability A / MCF-12F viability B
Protocol: as §1, §2, §3
The antitumor activity of Sample 3 and Sample 4 in the above Test Example 1 was evaluated using different tumor cells as targets.
Specifically, currently commercially available human kidney cancer cell lines (CAKI2) were used as test tumor cells. In addition, the above MCF-12F cells were used for comparison.
a McCoy's 5A culture medium (product, commercially available from Gibco) containing 2 mM of L-glutamine, 3,000 mg/L of glucose, 100 unit/mL of penicillin, 100 μg/mL of streptomycin, and 10% fetal bovine serum (FBS).
Details of the test were as those described in Test Example 2. The antitumor index based on the viabilities of CAKI2 cells and MCF-12F cells calculated using the above Formula (1) is shown in Table 3.

[3] = system: human melanoma cell line (SK-MEL5); test: Antitumor index from viability of SK-MEL5 cells vs MCF-12F normal cells (Cell Counting Kit-8, WST-8); assay type: cell-based; settings: 6.25 μM, 48 hours
[4] = system: A2058 cells (tumor cells); assay type: cell-based, human; settings: 48 hours; for Cell viability (%): human
Protocol: Then, peptide-containing test culture mediums for each concentration were prepared so that the concentrations of the sample peptides to be evaluated were 6.25 μM, 12.5 μM, and 25 μM and supplied to wells (that is, wells after the pre-incubation) in which 90 μL of cells to be evaluated were cultured in each well. Then, the 96-hole (well) plate was returned to the CO2 incubator and incubated under conditions of 37° C. and 5% CO2 for 48 hours. After the incubation for 48 hours was completed, the culture medium in each well was substituted with 100 μL of a fresh culture medium containing no peptide, and additionally, 10 μL of a cell proliferation measurement reagent “Cell Counting Kit-8” (product, commercially available from Dojindo Laboratories) containing a “water-soluble tetrazolium salt (WST-8)” as a coloring reagent was added to each well. Then, the 96-well plate was returned to the CO2 incubator and incubated under conditions of 37° C., and 5% CO2 for 1.5 hours to 2 hours. After the incubation was completed, the cell culture solution to which the reagent was added was collected and the cell viability (%) was calculated according to a colorimetric method in which an absorbance at a wavelength of 450 nm (value corrected by the absorbance at a wavelength of 620 nm: A450-A620) was measured based on the reduction of the tetrazolium salt. Specifically, a measured value (measurement absorbance) of a comparative test group in which the above incubation was performed for 48 hours in a culture medium containing no sample peptide was set as a cell viability of 100%. Then, the viability A (%) of A2058 cells and the viability B (%) of MCF-12F cells were calculated. In addition, an antitumor index was calculated based on the viability of A2058 cells and MCF-12F cells using the above Formula (1), and thus the antitumor activity of the sample peptide with respect to A2058 cells was evaluated. Using tumor cells as targets, the antitumor activity was evaluated using a synthetic peptide having a sequence completely different from those of Samples 1 to 4. Specifically, the viability (%) of A2058 cells (tumor cells) when Sample 5 was treated was evaluated. Details of the test were as those described in Test Example 2. Here, the viability of A2058 cells cultured in a culture medium containing no Sample 5 for the same time was set as 100%, and the viability (%) of A2058 cells cultured under the treatment of Sample 5 was calculated.

Substance | Antitumor activity / proliferation of A2058 cells (in words) [1] | Antitumor index ([1]; peptide 6.25 μM) | Antitumor index ([1]; peptide 12.5 μM) | Antitumor index ([1]; peptide 25 μM) | Proliferation of CAKI2 cells (in words) [2] | Antitumor index ([2]; peptide 6.25 μM) | Antitumor index ([2]; peptide 12.5 μM) | Antitumor index ([2]; peptide 25 μM) | Proliferation of SK-MEL5 cells (in words) [3] | Antitumor activity (in words) ([4]; A2058 cells, 6.25-25 μM) | Cell viability (%) ([4]; 6.25 μM) | Cell viability (%) ([4]; 12.5 μM) | Cell viability (%) ([4]; 25 μM)
IAAVIFGFLATAAYAVNTFLAKKRTLRKNDRKKR (IAAVIFGFLATAAYAVNTFLAKKRTLRKNDRKKR-NH2) [Sample 4] | stronger antitumor activity | 0.84 | 0.65 | 0.12 | significantly reduced proliferation | 1.41 | 0.83 | 0.22 |  |  |  |  | 
LVNTGLSAFLFFIASIVLAALKKRTLRKNDRKKR (LVNTGLSAFLFFIASIVLAALKKRTLRKNDRKKR-NH2) [Sample 3] | stronger antitumor activity |  |  |  | significantly reduced proliferation | 0.77 | 0.1 |  | significantly reduced proliferation |  |  |  | 
MGSNLSPQLCLMPFILGLLSGGVTTKKRTLRKNDRKKR-NH2 [Sample 5] |  |  |  |  |  |  |  |  |  | no antitumor activity | 110.7% | 109.9% | 113.6%
VAQVILALIAFICIETIMACSKKRTLRKNDRKKR (VAQVILALIAFICIETIMACSKKRTLRKNDRKKR-NH2; cysteine pairing not given here) [Sample 1] |  | 1.17 | 0.71 | 0.74 |  |  |  |  |  |  |  |  | 
YFFEFVSCSAFVVTGVLLIMFKKRTLRKNDRKKR [Sample 2] |  | 0.79 | 0.61 | 0.52 |  |  |  |  |  |  |  |  | 
